The data set can be described thus: Ultimate aerobic biodegradability in aqueous medium (OECD 301 A). The following applies: on the fourteenth day. As for the experimental part:
This test is an evaluation in an aqueous medium of the ultimate aerobic biodegradability of a sample of the concentrated formulation according to the invention. This test is performed according to the provisions of the OECD 301 A method using a sample containing a dissolved organic carbon content of 10 mg/l (DOC for dissolved organic carbon). The evolution of the disappearance of dissolved organic carbon is followed during a period of 28 days in the “Concentrated disinfection” test at 10 mg/l of DOC. The physical-chemical analysis is performed according to the ASTM […] standard. The attached FIG. 1 represents the resulting curves of degradation of the organic carbon dissolved after 28 days. The reference substance corresponds to sodium acetate.

As to `CC(=O)[O-].[Na+]` [sodium acetate], the “percentage of degradation of the reference substance” value worked out at 99%.

The record behind these values is patent publication US20170035049A1, “BIOCIDAL PRODUCTS” (SALVECO, priority 2014, published 2017).
